From ChEMBL document CHEMBL1127397, “The synthesis of nucleoside 5'-O-(1,1-dithiotriphosphates)” (J Med Chem, 1994)
Values after ≈ are worked out from the molar mass of the structure shown.

Legend:
CCRF-CEM [1] = experiment: Tested for the ability to inhibit HIV-1 (IIIB) replication in CEM cells; assay type: functional, cell-based; conditions: Homo sapiens
CCRF-CEM [2] = experiment: Tested for the ability to inhibit HIV-2 (ROD) replication in CEM cells; assay type: functional, cell-based; conditions: Homo sapiens
[3] = molecular target: Human immunodeficiency virus type 1 reverse transcriptase (Human immunodeficiency virus 1, UniProt Q72547); experiment: Tested against HIV-1 reverse transcriptase (HIV-1 RT) with poly(rA)/(dT)12-18 as template and [methyl-3H]-dTTP as competing substrate; assay type: functional

Row | SMILES | EC50 (CCRF-CEM [1]) | EC50 (CCRF-CEM [2]) | IC50 [3]
1 | Cc1cn([C@H]2CC(O)C(COP(=S)(S)OP(=O)(O)OP(=O)(O)O)O2)c(=O)[nH]c1=O (stereo not given in full) | > 50 µg/mL | > 50 µg/mL | –
2 | Cc1cn([C@H]2CC(N=[N+]=[N-])C(COP(=S)(S)OP(=O)(O)OP(=O)(O)O)O2)c(=O)[nH]c1=O (stereo not given in full) | 0.5 µg/mL (≈ 0.927 µM) | – | 0.94 µM
3 | Nc1nc(O)c2ncn(C3O[C@H](COP(=S)(S)OP(=O)(O)OP(=O)(O)O)[C@@H](O)[C@H]3O)c2n1 (stereo not given in full) | > 50 µg/mL | > 50 µg/mL | –
4 | Nc1nc(O)c2ncn([C@H]3CC(O)C(COP(=S)(S)OP(=O)(O)OP(=O)(O)O)O3)c2n1 (stereo not given in full) | > 50 µg/mL | > 50 µg/mL | –
5 | Nc1ncnc2c1ncn2[C@H]1CC(O)C(COP(=S)(S)OP(=O)(O)OP(=O)(O)O)O1 (stereo not given in full) | 43 µg/mL (≈ 82.2 µM) | 50 µg/mL (≈ 95.5 µM) | –
6 | Nc1ccn([C@H]2CC(O)C(COP(=S)(S)OP(=O)(O)OP(=O)(O)O)O2)c(=O)n1 (stereo not given in full) | 97 µg/mL (≈ 194 µM) | 123 µg/mL (≈ 246 µM) | –
7 | Cc1cn([C@H]2C[C@H](N=[N+]=[N-])[C@@H](CO[P@](=O)(O)O[P@](=O)(O)OP(=O)(O)O)O2)c(=O)[nH]c1=O [ZIDOVUDINE TRIPHOSPHATE] | – | – | 0.003 µM
8 | Nc1ncnc2c1ncn2C1O[C@H](COP(=S)(S)OP(=O)(O)OP(=O)(O)O)[C@@H](O)[C@H]1O (stereo not given in full) | 42 µg/mL (≈ 77.9 µM) | 116 µg/mL (≈ 215 µM) | –
